Source: patent US20130040306A1, “BACKSCATTERING INTERFEROMETRIC ANALYSIS OF MEMBRANE MATERIALS” (priority 2011, published 2013)
“Also recorded” adds a separate entry of the source.

Legend:
[1] = molecular target: T1, PLCδ1 (Homo sapiens, UniProt P51178); assay: BSI lipid binding (Ks) of PLCδ1 after small molecule treatment; conditions: small molecule treatment vs vehicle
T1 sequence (P51178 1-756): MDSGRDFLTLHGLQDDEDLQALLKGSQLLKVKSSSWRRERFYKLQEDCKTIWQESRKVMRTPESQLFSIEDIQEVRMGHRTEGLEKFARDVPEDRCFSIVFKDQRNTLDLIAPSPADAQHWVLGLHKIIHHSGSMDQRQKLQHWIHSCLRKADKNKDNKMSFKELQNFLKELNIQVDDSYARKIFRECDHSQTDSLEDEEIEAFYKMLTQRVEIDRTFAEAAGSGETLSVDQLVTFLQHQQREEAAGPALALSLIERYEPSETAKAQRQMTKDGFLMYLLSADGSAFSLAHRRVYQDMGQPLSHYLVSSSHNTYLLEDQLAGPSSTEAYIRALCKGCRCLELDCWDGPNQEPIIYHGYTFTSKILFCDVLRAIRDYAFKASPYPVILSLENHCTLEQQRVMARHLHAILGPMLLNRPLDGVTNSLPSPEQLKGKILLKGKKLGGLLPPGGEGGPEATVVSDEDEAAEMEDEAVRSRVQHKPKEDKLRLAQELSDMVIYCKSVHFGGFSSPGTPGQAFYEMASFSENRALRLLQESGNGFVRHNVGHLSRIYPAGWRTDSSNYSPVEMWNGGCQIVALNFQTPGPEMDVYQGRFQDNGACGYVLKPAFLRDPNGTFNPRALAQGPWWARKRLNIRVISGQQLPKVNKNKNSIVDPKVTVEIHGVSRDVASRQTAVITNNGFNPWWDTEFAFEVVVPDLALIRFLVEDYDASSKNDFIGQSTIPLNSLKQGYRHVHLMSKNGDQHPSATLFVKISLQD
Excerpt: (§1) For the backscattering interferometry experiments, large-unilamellar lipid vesicles are generated via extrusion for use in interfacial kinetic studies. The composition generally includes 86% mol neutral diluent (36:2 PE or 36:2 PG), 5% mol PI(4,5)P2, and 8% mol 32:0 PC. Following extrusion, bulk lipid concentration is confirmed via quantitative LC/MS. A HeNe laser beam is then directed at a sample in the channel of a microfluidic chip, resulting in an interference fringe pattern that is detected by the CCD camera. This fringe pattern shifts spatially as the refractive index (RI) of the sample changes; these shifts are translated into a numerical change in phase of the corresponding Fourier transformation. The absolute value of the magnitude in phase change corresponds to the change in solvation/hydration of the protein upon binding ligand, and can be used to plot a ligand binding curve. This inventive BSI technique can also accurately and reproducibly measure protein-lipid binding. […]
(§2) BSI was used to measure Kd of two VU-series compounds for albumin in the absence of lipid. […] As another control to confirm that vesicle composition is not disrupted due to small molecule treatment, Kd and Ks are measured for PLCδ1, which binds PIP2 at both its PH and catalytic domains.

[2] = molecular target: T2, albumin (Homo sapiens, UniProt P02768); assay: BSI small molecule binding to albumin in the absence of lipid
T2 sequence (P02768 25-609, species assumed): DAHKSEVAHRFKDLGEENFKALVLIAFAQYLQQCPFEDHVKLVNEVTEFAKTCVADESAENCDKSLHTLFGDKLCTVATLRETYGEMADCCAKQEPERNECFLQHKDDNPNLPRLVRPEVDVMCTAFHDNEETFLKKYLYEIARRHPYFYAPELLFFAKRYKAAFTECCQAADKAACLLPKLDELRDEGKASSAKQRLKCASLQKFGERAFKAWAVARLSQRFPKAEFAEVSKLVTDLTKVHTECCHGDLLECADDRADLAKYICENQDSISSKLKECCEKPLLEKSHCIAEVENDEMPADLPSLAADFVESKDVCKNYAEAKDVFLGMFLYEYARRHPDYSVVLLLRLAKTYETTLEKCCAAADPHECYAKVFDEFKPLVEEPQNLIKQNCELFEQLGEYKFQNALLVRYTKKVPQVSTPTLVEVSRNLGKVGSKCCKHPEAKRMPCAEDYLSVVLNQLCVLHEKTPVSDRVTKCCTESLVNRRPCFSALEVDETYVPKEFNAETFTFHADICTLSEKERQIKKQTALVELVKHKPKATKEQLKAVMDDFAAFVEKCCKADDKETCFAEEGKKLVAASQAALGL
Excerpt: as §1, §2

[3] = molecular target: T2, albumin; assay: BSI lipid binding (Ks) with albumin after small molecule treatment; conditions: small molecule treatment vs vehicle
Excerpt: as §1, with “curve.” for “curve. This inventive BSI technique can also accurately and reproducibly measure protein-lipid binding.”
(§3) BSI can also be used to measure changes in lipid binding affinities due to small molecule treatment. BSI-derived values can be compared to Ks values determined using classic biochemical methods.
as §2

[4] = preliminary DMPK plasma protein studies; assay type: in vitro ADME
[5] = molecular target: T1, PLCδ1; assay: BSI small molecule binding (Kd) to PLCδ1 control; conditions: control protein
Excerpt: as §1, §2

[6] = molecular target: T3, PLD1c.d311 (Homo sapiens, UniProt Q13393); assay: BSI small molecule binding to purified PLD1c.d311 in the absence of lipid; conditions: for direct binding to purified PLD1c.d311 by BSI: absence of lipid
T3 construct: an amino-terminally-truncated and catalytically active construct; made in house; host or cells: SF21 insect cells
T3 sequence (Q13393 312-1074 limits assumed): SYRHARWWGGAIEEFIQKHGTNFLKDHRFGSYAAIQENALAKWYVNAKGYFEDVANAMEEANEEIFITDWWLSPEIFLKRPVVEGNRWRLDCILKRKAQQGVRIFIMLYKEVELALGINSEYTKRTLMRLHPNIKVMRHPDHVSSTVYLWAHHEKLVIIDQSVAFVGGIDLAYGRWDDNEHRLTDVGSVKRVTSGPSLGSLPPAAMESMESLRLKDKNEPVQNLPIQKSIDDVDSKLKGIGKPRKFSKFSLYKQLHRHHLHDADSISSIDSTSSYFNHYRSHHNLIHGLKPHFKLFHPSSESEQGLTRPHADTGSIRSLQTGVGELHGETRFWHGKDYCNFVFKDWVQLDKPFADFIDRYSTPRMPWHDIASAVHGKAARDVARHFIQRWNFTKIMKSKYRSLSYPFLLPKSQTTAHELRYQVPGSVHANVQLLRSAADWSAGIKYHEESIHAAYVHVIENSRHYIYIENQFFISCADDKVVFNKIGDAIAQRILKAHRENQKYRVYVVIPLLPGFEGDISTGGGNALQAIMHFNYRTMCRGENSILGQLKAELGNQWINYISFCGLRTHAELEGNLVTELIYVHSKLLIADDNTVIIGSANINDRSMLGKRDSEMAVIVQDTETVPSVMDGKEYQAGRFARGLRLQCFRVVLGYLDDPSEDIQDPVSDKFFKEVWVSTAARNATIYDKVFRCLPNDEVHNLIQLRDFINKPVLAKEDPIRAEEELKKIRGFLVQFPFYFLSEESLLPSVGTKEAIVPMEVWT
Excerpt: Protein constructs that are composed of different domains of the enzyme are thus used to determine the approximate site of small molecule interaction. The bulk of the studies performed thus far use human PLD1c.d311, an amino-terminally-truncated and catalytically active construct that has robust expression in SF21 insect cells, and can be purified to homogeneity over a single affinity chromatography step. This construct does retain a small portion of the pleckstrin homology domain that is necessary for catalytic activity of the enzyme (reason for this is unknown).
Binding studies are performed using backscattering interferometry (BSI), which can be performed on an efficient nanoscale level with a picomolar limit of detection, and can be used to measure Ki and Ks values for inhibitor-treated purified protein.
For the backscattering interferometry experiments, large-unilamellar lipid vesicles are generated via extrusion for use in interfacial kinetic studies. The composition generally includes 86% mol neutral diluent (36:2 PE or 36:2 PG), 5% mol PI(4,5)P2, and 8% mol 32:0 PC. Following extrusion, bulk lipid concentration is confirmed via quantitative LC/MS. A HeNe laser beam is then directed at a sample in the channel of a microfluidic chip, resulting in an interference fringe pattern that is detected by the CCD camera. This fringe pattern shifts spatially as the refractive index (RI) of the sample changes; these shifts are translated into a numerical change in phase of the corresponding Fourier transformation. The absolute value of the magnitude in phase change corresponds to the change in solvation/hydration of the protein upon binding ligand, and can be used to plot a ligand binding curve. This inventive BSI technique can also accurately and reproducibly measure protein-lipid binding. This technique measures small shifts in RI phase (limit of sensitivity is picomolar) and requires only nanomolar concentrations of protein and ligand in a 1 μl volume channel.

[7] = molecular target: T4, PLD1.d311 (Homo sapiens, UniProt Q13393); assay: in vitro PLD activity assay (release of tritiated choline headgroup, lipid vesicles); assay type: biochemical; conditions: for IC50: in vitro PLD activity assay
T4 construct: an amino-terminally-truncated and catalytically active construct; made in house; host or cells: SF21 insect cells
T4 sequence (Q13393 312-1074 limits assumed): T3 sequence (Q13393 312-1074 limits assumed)
Method: In vitro activity assays can be performed to measure changes in Km, and Vmax due to small molecule inhibition. This reconstitution assay uses large unilamellar vesicles (generated by extrusion of defined % mol amounts of purified lipid species) incubated with purified PLD and measures the release of a tritiated choline headgroup as a readout of catalytic activity.
Concentration response curves were generated in a radioisotopically labelled activity assay for three VU-series compounds and tungstate with N-myr-Arf1 activated PLD1.d311. Ki measurements of these inhibitors were obtained using BSI.

[8] = molecular target: T3, PLD1c.d311; assay: BSI interfacial lipid binding affinity (Ks) of PLD after small molecule treatment; conditions: small molecule treated enzyme
Excerpt: Eukaryotic PLD is an interfacial enzyme that, in the classic model, binds the lipid surface via interaction with PI(4,5)P2 prior to hydrolyzing substrate. […] In order to study PLD, the interfacial binding affinity must first be measured (Ks), and subsequent studies must saturate lipid binding to force application of Michaelis-Menten kinetics.
as §1, with “transformation.” for “transformation. The absolute value of the magnitude in phase change corresponds to the change in solvation/hydration of the protein upon binding ligand, and can be used to plot a ligand binding curve. This inventive BSI technique can also accurately and reproducibly measure protein-lipid binding.”
as §3

C[C@@H](CN1CCC(n2c(=O)[nH]c3cc(Br)ccc32)CC1)NC(=O)[C@@H]1C[C@H]1c1ccccc1 [VU0359595]
Ks of PLCδ1 compared to vehicle [1]: does not show shifted Ks | binding to albumin by BSI [2]: bind albumin | Ks compared to vehicle (albumin control) [3]: disrupted compared to vehicle | plasma protein bound [4]: 98% | binding to PLCδ1 by BSI [5]: does not bind

O=C(c1ccc(OCCN2CCCCC2)cc1)c1c(-c2ccc(O)cc2)sc2cc(O)ccc12 [raloxifene]
direct binding to purified PLD1c.d311 by BSI [6]: directly binds the enzyme | direct binding to purified PLD1c.d311 by BSI ([6]; listed as Raloxifene): directly binds the enzyme in the absence of lipid | PLD inhibition in vitro (in words) [7]: confirmed to be PLD inhibitors in vitro | IC50 [7]: 10 µM | shift of Ks (interfacial lipid binding) of PLD [8]: shifting Ks; also recorded: shifts Ks

CC/C(=C(\c1ccccc1)c1ccc(OCCN(C)C)cc1)c1ccccc1 [tamoxifen]
direct binding to purified PLD1c.d311 by BSI [6]: does not bind | mechanism of PLD inhibition ([6]; concluded from BSI measurements): indirectly inhibit PLD activity | PLD inhibition in vitro (in words) [7]: confirmed to be PLD inhibitors in vitro | IC50 [7]: 48 µM

[O]=[W](=[O])([O-])[O-] [tungstate]
Ki (BSI) compared with IC50 (activity assay) ([6]; PLD1.d311, absence of lipid, vs IC50 with N-myr-Arf1 activated PLD1.d311): ≤ 2 fold | direct binding to purified PLD1c.d311 by BSI [6]: directly binds the inhibitors in the absence of lipid
